Tested on: hmNPCs
Experiment: Patch-clamp of voltage-gated potassium and sodium channels in differentiated cells
Type: cell-based, human
Conditions: 100 µM; differentiation for 3 weeks
Procedure: Patch-clamp analyses of hmNPCs was carried out after in vitro differentiation for 3 weeks with or without 100 µM UTP at room temperature using an inverted microscope DMIL (Leica, Bensheim, Germany) and an EPC-9 amplifier (HEKA, Lambrecht, Germany). Recordings of voltage-gated potassium and sodium channels were obtained in the whole-cell voltage-clamp mode by stepwise depolarisations with increasing amplitudes from the holding potential of - 70mV to 50mV in steps of 10mV. Ligand-gated P2X-channels were investigated in the whole-cell voltage-clamp mode by rapid application of 300 µM ADP, ATP, and UTP with a SF-77B perfusion fast-step system (Warner Instruments Inc., Hamden, USA). Series resistance values were continuously measured during all recordings. The external bath solution contained (in mM): 142 NaCl, 1 CaCl2, 8 KCI, 6 MgCl2, 10 Glucose, and 10 HEPES (pH 7.4; 320 mOsm). Micropipettes were formed from thin-walled borosilicate glass (Science Products, Hofheim, Germany) with a Flaming Brown electrode puller P-97 (Sutter Instrument Co., Novato, USA) and a Micro Forge (Narishige, Tokio, Japan). […] Whole cell currents were low-pass filtered at 2-5 kHz, digitized at 10 kHz, and analyzed using PulseFit software (HEKA, Lambrecht, Germany) and Prism 4 (GraphPad Software Inc, San Diego, USA). Numerical data were expressed as mean ± SEM. […]

SMILES: O=c1ccn([C@@H]2O[C@H](COP(=O)(O)OP(=O)(O)OP(=O)(O)O)[C@@H](O)[C@H]2O)c(=O)[nH]1 [UTP, uridine 5'-triphosphate]
- maximal potassium and sodium current amplitudes, treated vs untreated: no significant difference

Reference: EP1897937A1, “Method of culturing NPCs” (NeuroProgen GmbH Leipzig, priority 2006, dated 2008)
